Consider one compound from patent publication US11872237B2, “Pharmaceutical composition and preparation method thereof” (Ascentage Pharma (Suzhou) Co., Ltd., priority 2019, dated 2024).

In brackets after ≈: the same amount, converted by molar mass.

The nature of data set [1]: Effect of pH value on the solubility of Compound 1 (solution appearance). The format is physicochemical. Here is the method: Experimental method: Referring to the process of preparation of solution in Preparation Example 1, the preparation was carried out in an amount of 10 vials, and the solutions with different pH values were prepared according to the following formulations (contents in each vial), and the properties of the prepared solutions were observed.
The thicker of the milky white, the worse of the solubility.

Data set [2] is described as follows: Solubility of Compound 1 in different co-solvents (excess compound, HPLC analysis). In kind it is physicochemical. The conditions noted are these: organic solvent or mixture, thermodynamic from solid, about half an hour. From the text:
2. The effects of different co-solvents on the solubility of Compound 1 were observed. The specific results are as follows.
Experimental method: Compound 1 was taken in excess amount, suspended in various solvents, sampled and filtered after about half an hour, and analyzed by HPLC analysis.

For the next data set, the system named is cancer cells. The settings on record: see WO2014113413; cited from earlier work.
Data set [3] in a line: General statements on solubility and stability of Compound 1 versus pH. In kind it is physicochemical.
Data set [4] can be described thus: Effect of surfactant on solubility and clarity of Compound 1 (appearance observation). In kind it is physicochemical. The settings on record: PEG400, ethanol, mannitol. The method, then:
3. The effects of the Polyoxyl 35 Castor Oil ester used by the present invention as surfactant on the solubility and clarity of the compound 1 were further tested. The specific results are as follows.
Experimental method: Referring to the process of preparation of solution in Preparation Example 1, the preparation was carried out in an amount of 10 vials, and the solutions with different pH values were prepared according to the following formulations (contents in each vial) for appearance observation.
In addition, the effect of Tween80 as surfactant of the present invention on the solubility and clarity of compound 1 was tested. Specific results are as follows.
Experimental Method: referring to the process of preparation of solution in Preparation Example 1, the solution was prepared according to the formulation in the Table below for appearance observation.
Similarly, the effect of Solutol HS-15 as surfactant of the present invention on the solubility and clarity of compound 1 was tested. Specific results are as follows.

`Cc1c(S(C)(=O)=O)c(-c2cc(F)cc(N3CCN(c4ccc(NS(=O)(=O)c5ccc(N[C@H](CCN6CCC(C(=O)OCCCP(=O)(O)O)CC6)CSc6ccccc6)c(S(=O)(=O)C(F)(F)F)c5)cc4)CC3)c2)c(-c2ccc(Cl)cc2)n1C(C)C` [Compound 1, (3R)-1-(3-(4-(4-(4-(3-(2-(4-chlorophenyl)-1-isopropyl-4-methylsulfonyl-5-methyl-1H-pyrrol-3-yl)-5-fluorophenyl)piperazin-1-yl)-phenylaminosulfonyl)-2-trifluoromethylsulfonyl-anilino)-4-phenylthio-butyl)-piperidine-4-carboxylic acid 3-phosphonopropyl ester]: the “solubility of Compound 1” value is listed as “poor” in data set [1] (pH 7.888, Table 1 formulation); “acceptable” in data set [1] (pH 8.528, Table 1 formulation); “acceptable” in data set [1] (pH 9.016, Table 1 formulation); “best solubility” in data set [1] (pH 9.326, Table 1 formulation). Further, the solubility in data set [2] (solvent Ethanol, 25° C.) was 0.85 mg/mL (≈ 663 µM); in data set [2] (solvent Glycerin, 25° C.), 0.45 mg/mL (≈ 351 µM); in data set [2] (solvent PEG400, 25° C.), 16.8 mg/mL (≈ 13100 µM); in data set [2] (solvent Propylene glycol, 25° C.), 3.1 mg/mL (≈ 2420 µM); in data set [3] (acidic or near-neutral solutions), “extremely poorly soluble”. Also, in the data set with cancer cells, the “inducing apoptosis of cancer cells” value is “effective”. For the same compound, the dissolution result in data set [3] (alkaline conditions) is “greatly improved”. Moreover, in data set [3] (alkaline conditions), the stability result is “unstable”. For the same compound, the Solution appearance result in data set [4] (Table 3a: compound 1 10 mg/ml, Tween80 50 mg, pH 9.0) is listed as “Transparent solution”; in data set [4] (Table 3b: compound 1 10 mg/ml, Solutol HS-15 240 mg, pH 8.7), “Transparent solution”.
